Experimental findings from ChEMBL document CHEMBL1759844, “Design, synthesis and antimycobacterial activity of cinnamide derivatives: a molecular hybridization approach” (Bioorg Med Chem Lett, 2011) are described below.

In series [1] the test system is Mycobacterium tuberculosis. Nature of the series: Antimicrobial activity against Mycobacterium tuberculosis H37Rv after 48 hrs by resazurin microplate broth microdilution method. It is filed as functional.
Series [2] is described as follows: Cytotoxicity against african green monkey Vero cells after 72 hrs by MTT assay. It is filed as cell-based. The settings on record: chlorocebus sabaeus. On the technique in general: Formazan colour is commonly taken as a measure of viable cells.
A short description of series [3]: Selectivity index, ratio of CC50 for african green monkey Vero cells to MIC for Mycobacterium tuberculosis H37Rv. It is filed as functional.
The subject of series [4] is Mycobacterium tuberculosis. The experiment in a line: Antimicrobial activity against Mycobacterium tuberculosis H37Rv after 48 hrs by resazurin microplate broth microdilution method in presence of rifampicin. It is filed as functional. In general terms: The colour change of resazurin is a common sign of viable cells or microbes.

The MIC is the least concentration at which growth counts as inhibited. The term CC50 denotes the concentration giving 50% cytotoxicity. `O=C(/C=C/c1ccccc1)N1CCCN(C(=O)/C=C/c2ccccc2)CC1` gave an MIC in series [1] of 17.3 µM. This compound came in with a CC50 at 72 h in series [2] of 708 µM. Besides, in series [3], the “Selectivity Index” value is recorded as 41.

In turn, `O=C(/C=C/c1ccccc1)NCCNC(=O)/C=C/c1ccccc1` showed a minimum inhibitory concentration (MIC) in series [1] of 5.1 µM. The compound further had a CC50 at 72 h in series [2] of 618 µM. In addition, the “Selectivity Index” value in series [3] was 121. Besides, in series [4], the “fractional inhibitory concentration index (FICI)” value turned out to be 0.31.

In turn, `O=C(/C=C/c1ccccc1)N1CCN(C(=O)/C=C/c2ccccc2)CC1` registered an MIC in series [1] of 9 µM. Moreover, half-maximal cytotoxicity in series [2] (CC50 at 72 h) was put at 855 µM. Also, the “Selectivity Index” value in series [3] is reported as 95.

For `O=C(/C=C/c1ccccc1)NCCN1CCN(C(=O)/C=C/c2ccccc2)CC1`, the MIC in series [1] turned out to be 16.7 µM. For the same compound, the half-maximal cytotoxic concentration (CC50) at 72 h in series [2] is 480 µM. In addition, the “Selectivity Index” value in series [3] stood at 29.

The compound `Cc1ccc(/C=C/C(=O)NCCNC(=O)/C=C/c2ccc(C)cc2)cc1` displayed an MIC in series [1] of 144 µM. Moreover, the CC50 at 72 h in series [2] stood at 565 µM. For the same compound, the “Selectivity Index” value in series [3] amounted to 4.

`COc1ccc(/C=C/C(=O)NCCNC(=O)/C=C/c2ccc(OC)cc2)cc1`: the MIC in series [1] stood at 132 µM. The compound further yielded a CC50 at 72 h in series [2] of 680 µM. Further, the “Selectivity Index” value in series [3] came to 5.

On to `O=C(/C=C/c1ccc(Cl)cc1)NCCNC(=O)/C=C/c1ccc(Cl)cc1`, for which the minimal inhibitory concentration (MIC) in series [1] amounted to 129 µM. This compound also gave a half-maximal cytotoxic concentration (CC50) at 72 h in series [2] of 788 µM. The “Selectivity Index” value in series [3] stood at 6.

As to `O=C(/C=C/c1ccccc1Cl)NCCNC(=O)/C=C/c1ccccc1Cl`, it took 64.4 µM to inhibit growth in series [1] (MIC). In addition, in series [2], it took 725 µM to reach half-maximal cytotoxicity (CC50 at 72 h). Besides, in series [3], the “Selectivity Index” value worked out at 11.

As to `O=C(/C=C/c1cccc([N+](=O)[O-])c1)NCCNC(=O)/C=C/c1cccc([N+](=O)[O-])c1`, the MIC in series [1] stood at 68.5 µM. For the same compound, the 50% cytotoxic concentration (CC50) at 72 h in series [2] worked out at 615 µM. Moreover, the “Selectivity Index” value in series [3] was found to be 9.

Compound `COc1ccccc1/C=C/C(=O)NCCNC(=O)/C=C/c1ccccc1OC` returned an MIC in series [1] of 65.8 µM. The CC50 at 72 h in series [2] was 695 µM. Besides, the “Selectivity Index” value in series [3] came to 11.

`O=C(/C=C/c1c(Cl)cccc1Cl)NCCNC(=O)/C=C/c1c(Cl)cccc1Cl` came in with an MIC in series [1] of 54.8 µM. The compound further yielded a CC50 at 72 h in series [2] of 653 µM. For the same compound, in series [3], the “Selectivity Index” value stood at 12.

Compound `O=C(/C=C/c1ccco1)NCCNC(=O)/C=C/c1ccco1` had an MIC in series [1] of 10.8 µM. Further, in series [2], the CC50 at 72 h worked out at 683 µM. In addition, the “Selectivity Index” value in series [3] was 63.

`O=C(/C=C/c1cccs1)NCCNC(=O)/C=C/c1cccs1` had an MIC in series [1] of 9.41 µM. Also, the cytotoxic concentration (CC50) at 72 h in series [2] turned out to be 692 µM. For the same compound, the “Selectivity Index” value in series [3] came out at 74.

In turn, `O=C(/C=C/c1ccc(Cl)c(Cl)c1)NCCNC(=O)/C=C/c1ccc(Cl)c(Cl)c1` displayed an MIC in series [1] of 54.8 µM. In series [2], this compound came in with a CC50 at 72 h of 653 µM. Also, in series [3], the “Selectivity Index” value is on record as 12.

On to `CC[C@@H](CO)NCCN[C@@H](CC)CO` [ETHAMBUTOL], for which, in series [1], 15.3 µM was the least that counted as inhibitory (MIC). In addition, the 50% cytotoxic concentration (CC50) at 72 h in series [2] is 1470 µM. The “Selectivity Index” value in series [3] is 96.

On to `CO[C@H]1/C=C/O[C@@]2(C)Oc3c(C)c(O)c4c(O)c(c(/C=N/N5CCN(C)CC5)c(O)c4c3C2=O)NC(=O)/C(C)=C\C=C\[C@H](C)[C@H](O)[C@@H](C)[C@@H](O)[C@@H](C)[C@H](OC(C)=O)[C@@H]1C` [RIFAMPIN], for which the minimum inhibitory concentration (MIC) in series [1] was 0.125 mg/L.
